Legend:
CTLL-2 cells = test: CTLL-2 cell proliferation reactivation assay (CyQUANT); format: cell-based; details: for IC50: CTLL-2 cells with rhPD-L1 chimera, 72 h, n = 3
From the text: Next, we investigated the capacity of the compound to reactivate proliferation of CTLL-2 cells. These cytotoxic T cells expressing […] are maintained in a dormant state when they are cultivated in the presence of recombinant hPD-L1; their proliferation, monitored by flow-cytometry (using the CyQuant cell proliferation test), is reactivated when they are exposed to a PD-L1 inhibitor, thus mimicking a reactivation of the immune system. […] The replacement of the Me substituent of compound 2 with an ethyl group abolished the capacity of the product to promote CTLL-2 cell proliferation. The same result was obtained with a compound bearing a […] chain instead of the ethyl chain (not shown).
The CyQUANT cell proliferation kit (Thermofischer, Waltham, MA, USA) was used to evaluate the growth of the CTLL-2 cell line (ATCC). Cells were prepared by growing them in the presence or absence of rhPD-L1 chimera (R&D) plus the test compound, and then transferring them to microplates for assay according to manufacturer’s instructions (Molecular Probes C35011). A cell-based standard curve was first established, with the amount of fluorescence correlated to the quantity of cells in the wells. Cells were incubated with increasing concentrations of compounds, over a period 72 h. Positive (nivolumab) and negative (no rhPD-L1 Fc chimera) controls were performed to calibrate the assay. IC50 were determined for the restoration of proliferation by global curve fitting with Graphpad. Experiments were repeated three times and IC50 values averaged.

[1] = EPR spin-trapping assay with DMPO under Fenton conditions; details: for DMPO kr / DMPO kr/ka: DMPO 1 mM; for DMPO kr: methanol, reaction with •OCH3; for DMPO kr/ka: ka (DMPO-•OH) = 4.3 × 10^9 M^−1 s^−1
Protocol: (§1) We used two electron paramagnetic resonance (EPR)-based assays to compare the antioxidant potency of the compounds. The first assay was a free radical scavenging test with 1,1-diphenyl-2-picrylhydrazyl (DPPH) to monitor the decay in the EPR signal intensity in the presence of the diamagnetic hydrazine compound. The intensity of the typical EPR spectrum of DPPH (100 μM) decreases in the presence of increasing concentration of the test compounds (Figure 6). The attenuation of the EPR signal reflects the antioxidant effect, clearly visible with each compound. From the EPR data, the concentration of the compound required to reduce the signal intensity by 50% (EC50) was calculated. […] The second assay relies on the use of the spin-trapping agent DMPO (5,5-dimethyl-1-pyrroline N-oxide) to monitor the formation of an oxygen centered radical generated under Fenton conditions (hydrogen peroxide plus ferrous ions). We used methanol as a solvent, thus leading to a monitoring of the methoxy radical DMPO/^•OCH3 characterized with a typical six-line EPR signal with hyperfine coupling constants aN = 13.9 G and aH = 8.3 G (Figure 7). The decrease in the EPR signal was evaluated with the different compounds to compare their relative antioxidant capacity. […] For each compound, we calculated the reaction constants (kr in Table 2). The antioxidant capacity of compounds 4–5 was reduced compared to edaravone (1). Nevertheless, compound 5 maintains a significant activity, with a kr value reduced by a factor 2.6 compared to the reference product 1. […] The value obtained with EDA is consistent with that given in the literature and thus validates our measurements.
(§2) An X-band Brüker Elexsys E500 spectrometer operating at 9.86 GHz was used to perform CW-EPR experiments. CW-EPR spectra were recorded at room temperature with a microwave power of 5.024–10.02 mW and a modulation amplitude of 1–2 G that considers non-saturation conditions. The free radical scavenging molecule DPPH (1,1-diphenyl-2-picrylhydrazyl) and spin trap agent DMPO (5,5-dimethyl-1-pyrroline N-oxide) were used to monitor the antioxidant activity of the test compounds. The solution mixture (50 μL) was filled into a glass capillary, placed in 4 mm quartz EPR tubes for analysis. The inhibition of DPPH (%) was calculated with the equation: I (%) = ((I0 − I)/I0) × 100 where I0 is the area of the EPR spectrum of DPPH (control sample), and I the area of the DPPH spectrum with antioxidant compound. The rate constant for the reaction of antioxidant compounds with ^•OCH3 is expressed by the equation: 1/Ra = 1/Rf + ((Kr [AH])/(ka [DMPO] Rf)) where Rf, and Ra indicate EPR signal area (double integration of EPR signal) of ^•OCH3, DMPO/^•OCH3, respectively. ka and [DMPO] are constants, and a plot of 1/Ra vs. [AH] (concentration of antioxidant compound) gives a straight line with 1/Rf as an intercept and kr/(ka[DMPO]Rf) as the slope. The rate constant for the reaction of ^•OCH3 with antioxidant compounds (kr) is expressed by the equation: kr = (ka [DMPO] × slope)/− intercept.

[2] = EPR DPPH free radical scavenging assay; details: DPPH 100 µM, compound 2 to 90 µM
Protocol: as §1, §2

[3] = Aldehyde (4-HNE) reactivity by HRMS; details: 180 min, 37 °C, [M–H]-
From the text: Edaravone (1) is a reactive molecule known to form adducts with different aromatic aldehydes, such as formylpterin and vanillin [15, 19]. In aqueous solution, it forms mono- and bis-adducts with the aldehyde compound vanillin [20]. […] Here we have compared the reactivity of compounds 1–5 using another aldehyde with a major biological relevance, 4-hydroxynonenal. 4-HNE is a product of lipid peroxidation implicated in the pathogenesis of diverse human diseases, such as diabetes, aging-related diseases and cancers. […] Edaravone is known to react covalently with 4-HNE to form mono-, bis-, and tris-adducts in solution [25]. We used high-resolution mass spectrometry (HRMS) to monitor the formation of the covalent adducts generated with the phenyl-pyrazolones and 4-HNE after 3 h of incubation at physiological temperature in an aqueous buffer. The formation of mono-, bis-, and tris-adducts was detected unambiguously with each compound (Figure 8). A reaction scheme is represented in Figure 9 for compound 5. In each case, the pyrazolone compound (nucleophile) easily reacted with 4-HNE to generate the different species, each characterized by their corresponding mass (m/z), the ring-double-bond value (rdb, valence values of elements in structure), the signal intensity and the correspondence with the theoretical m/z value (Δppm) (Table 3). The different species can be easily identified, with the isotopic pattern characteristic for the presence of chlorine and carbon atoms (chlorine and carbon cluster isotopes). In all cases, the species formed were identified without any ambiguity from their relative abundances. […] These values were in accordance with the theorical abundances, calculated from the exactive software for the isotopic pattern of the ions from m/z = 489.13606 to m/z = 494.13323.
High resolution mass spectrometry (HRMS) and spectra were recorded with an Exactive Plus mass spectrometer (Thermo Fisher Scientific, San Jose, CA, USA) equipped with a heated electrospray ionisation probe (HESI -II). Each mass analyzer was calibrated with Pierce®ESI positive and negative ion calibration solutions each week (Thermo Fisher Scientific). Optimization of voltages, gas values, and temperatures applied for ion transfer and ionization was performed in negative mode. The tuning parameters were optimized separately with reaction mixture obtained from reaction of nucleophile with the aldehyde. This was completed by infusing first individual solutions of each nucleophile or the aldehyde at 10 pmol/µL. Each reaction mixture was performed during 180 min at 37 °C with the compound at 0.5 mM in phosphate buffer 10 mM, pH = 7.4 and then the reaction mixture was diluted 1/400 in MeOH. The solution was injected with a syringe at a flow rate of 10 µL/min. […]

[4] = target: T1, recombinant human PD-L1 protein (rhPD-L1) (Homo sapiens, UniProt Q9NZQ7); set-up: method as in printed; details: background statement of the introduction, ref not given; cited from earlier work
T1 construct: purchased R&D Systems 9049-B7-100

[5] = target: T2, PD-L1 dimers (His-labeled PD-L1 titrated with unlabeled His-PD-L1) (Homo sapiens, UniProt Q9NZQ7); test: MST dimerization binding assay; details: test compound 1 µM, labeled His-PD-L1 10 nM
T2 construct: purchased Biotechne 9049-B7-100
From the text: These observations led us to prioritize compound 5 as a hit compound owing to its potent capacity to bind to PD-L1, to interrupt PD-1/PD-L1 signaling and to reactivate CTLL-2 cell proliferation. Moreover, we selected this compound for an additional reason: its unique capacity to promote dimerization of rhPD-L1. This later property was evidenced using a specific dimerization binding assay which monitors the formation of PD-L1 dimers from a His-labeled PD-L1 protein by MST. The use of a PD-L1 protein with a polyhistidine (6xHis) tag at the C-terminus allows the non-covalent, stable, and selective labeling of the protein with a red fluorescent dye, to facilitate the formation of PD-L1 dimers. […] There is no doubt that this compound is a robust inhibitor of the PD-1/PD-L1 checkpoint.
A labeled His-PD-L1 protein was titrated against an unlabeled His-PD-L1 protein with or without compounds of interest. The test compound (1 µM) and the His-labeled PD-L1 protein (10 nM) are kept constant whereas the unlabeled His-PD-L1 (1 µM) varies with a serial 1:1 ratio of 16 gradients. MST was performed using the same instrument as mentioned above. His-PD-L1 protein (Biotechne # 9049-B7-100) was diluted to 200 nM in commercial PBS-T buffer and was labeled as indicated above. The RED-tris-NTA dye was diluted in PBS-T to 100 nM. The mix was incubated at room temperature in the dark for 30 min. Capillaries were filled individually.

[6] = target: T1, recombinant human PD-L1 protein (rhPD-L1); test: Microscale thermophoresis (MST) binding assay; details: rhPD-L1, n = 3, 1:1 binding model
[7] = target: T3, interaction between PD-L1 and PD-1 (Homo sapiens, UniProt Q9NZQ7); test: FRET reporter assay, SHP-2-CFP / PD-1-YFP in CHO-K1 cells activated by rhPD-L1; format: cell-based; details: CHO-K1 cells co-transfected PD1-SHP2, PD-L1 10 µM, n = 5, read-out: Bioactivity (IC50), block of PD-L1/PD-1 interaction in cells
T3 construct: expressed in transfected cells; host or cells: CHO-K1

[8] = Metabolic stability in mouse liver microsomes; format: in vitro ADME
From the text: The metabolic stability of the compounds in mice liver microsomes was investigated using liver microsomes from male mice (BD Gentest™) with propranolol as a positive control, as described previously. Mouse plasma CD-1 was used to investigate the plasma stability of the molecules, with enalapril as a positive control, as described recently.

Solubility = format: physicochemical

T3 sequence (Q9NZQ7 19-239 limits assumed): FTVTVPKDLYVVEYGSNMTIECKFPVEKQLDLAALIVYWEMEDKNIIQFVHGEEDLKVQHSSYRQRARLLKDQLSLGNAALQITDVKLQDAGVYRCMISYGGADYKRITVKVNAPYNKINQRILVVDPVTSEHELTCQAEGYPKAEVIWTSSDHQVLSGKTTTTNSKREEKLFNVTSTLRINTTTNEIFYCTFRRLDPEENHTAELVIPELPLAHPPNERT
T2 sequence (Q9NZQ7 19-239 limits assumed): as above
T1 sequence (Q9NZQ7 19-239 limits assumed): as above

For COc1nc(OCc2cccc(-c3ccccc3)c2C)ccc1CNCCNC(C)=O [BMS-202, reference compound], the IC50 (CTLL-2 cells) was 53 ± 17 nM.

In the case of CC1=NN(c2ccccc2)C(=O)C1 [Compound 1, edaravone, reference compound], the DMPO kr [1] is reported as 25.9 10^10 M^−1 s^−1, the DMPO kr/ka [1] is reported as 60 and the EC50 [2] is reported as 35800 nM. The “HRMS intensity of remaining 4-HNE” value [3] was 1.63 × 10^5 and the “Binding to PD-L1” value [4] was “does not bind to PD-L1”.

With COc1ccccc1C1=NN(c2ccc(Cl)cc2Cl)C(=O)C1 [Compound 3, 1-(2,4-Dichlorophenyl)-3-(2-methoxyphenyl)-1H-pyrazol-5(4H)-one] the IC50 (CTLL-2 cells) was 79 ± 7 nM, the IC50 (CTLL-2 cells; Mus musculus, CTLL-2, 72 h) was 70 nM and the “Promotion of PD-L1 dimerization” value [5] was “inactive”. For the same molecule, the EC50 [2] was 34000 nM, the “HRMS intensity of remaining 4-HNE” value [3] was 1.92 × 10^5 and the melting point was 188 °C.

For CC1=NN(c2ccc(Cl)cc2Cl)C(=O)C1 [Compound 2], the IC50 (CTLL-2 cells; Mus musculus, CTLL-2, 72 h) was 53 ± 11 nM, the DMPO kr [1] was 19.3 10^10 M^−1 s^−1 and the DMPO kr/ka [1] was 45. The EC50 [2] was 36500 nM.

Oc1cc(-c2ccccc2F)nn1-c1ccc(Cl)cc1Cl [Compound 5, 1-(2,4-Dichlorophenyl)-3-(2-fluorophenyl)-1H-pyrazol-5-ol] gave a Kd [6] of 27 ± 4 nM, an IC50 [7] of 74 ± 7 nM and an IC50 (CTLL-2 cells; Mus musculus, CTLL-2, 72 h) of 43 ± 9 nM. The “Promotion of PD-L1 dimerization” value [5] was “promoted the dimerization of PD-L1 in a dose-dependent manner”, the DMPO kr [1] was 9.74 10^10 M^−1 s^−1 and the DMPO kr/ka [1] was 23. For the same molecule, the “kr value reduced by a factor compared to reference product 1” value ([1]; DMPO assay) was 2.6, the EC50 [2] was 38200 nM and the “HRMS intensity of remaining 4-HNE” value [3] was 2.11 × 10^5. For the same molecule, the “Microsomal stability compared to compound 3” value [8] was “slightly improved”, the “Solubility compared to compound 3” value (Solubility) was “slightly improved” and the melting point was 229 °C.

For atezolizumab, the IC50 [7] was 47 ± 11 nM.

In the case of CCC1=NN(c2ccc(Cl)cc2Cl)C(=O)C1 [Compound 4, 1-(2,4-dichlorophenyl)-3-ethyl-1H-pyrazol-5(4H)-one], the Kd [6] is reported as 19 ± 3 nM, the IC50 [7] is reported as 12 ± 5 nM and the “Reactivation of CTLL-2 cell proliferation” value (CTLL-2 cells; CTLL-2 cells with rhPD-L1) is reported as “inactive”. For the same molecule, the “Promotion of PD-L1 dimerization” value [5] was “inactive”, the DMPO kr [1] was 4.40 10^10 M^−1 s^−1 and the DMPO kr/ka [1] was 10. The EC50 [2] was 40900 nM, the “HRMS intensity of remaining 4-HNE” value [3] was 1.01 × 10^5 and the melting point was 160 °C.

— PMC10144346, “Novel PD-L1-Targeted Phenyl-Pyrazolone Derivatives with Antioxidant Properties” (Molecules, 2023)
